Experimental data as given in patent publication US9505774B2, “Polymorphic forms of icotinib maleate and uses thereof” (BETTA PHARMACEUTICALS CO., LTD., priority 2013, dated 2016).
Where a name gives a salt, the structure may show the parent alone.

Test: Pharmacokinetic study of Icotinib hydrochloride and Polymorph Form II of Icotinib maleate, oral suspension, plasma by HPLC
Format: in vivo
Conditions: Sprague-Dawley (SD), rat, fasted male SD rats, oral suspension in sodium carboxymethyl cellulose, dose equivalent to 35 mg/kg Icotinib; for AUC(0-t): read-out: AUC(0-24)
Excerpt: Drugs and reagents: the Icotinib hydrochloride used in this study was of Crystalline Form I disclosed by the WO2010/003313. Polymorph Form II of Icotinib maleate and Icotinib hydrochloride were ground to fine particles. The material content (purity) was not less than 99.0%. Sodium carboxymethyl cellulose was medical supply graded.
Experimental animals: SD rats were divided to an Icotinib hydrochloride group and a Polymorph Form II group, with both groups consisting of males.
Pharmaceutical preparation: the amount of each compound was weighed and then sodium carboxymethyl cellulose was added to result in the test compound's concentration of 0.5%. The solid mixture was then added to prepare a suspension thereof at a final concentration of […] in water.
Administration and sample collection: each suspension was administered orally to fasted SD rats at a dose equivalent to 35 mg/kg Icotinib in a dose volume of 5 ml/kg. 0.4 ml of blood was collected in EDTA-K pre anticoagulant tubes at time intervals of 0.5, 1, 1.5, 2, 4, 6, 8 and 24 hrs after the administration of the test compound, centrifuged at 3000 rpm for 10 minutes, and 120 μl plasma was collected and kept in cold storage.
Samples were analyzed by high performance liquid chromatography. The chromatographic conditions utilized C18-silane bonded silica as stationary phase, 0.02 mol/L of sodium dihydrogen phosphate in acetonitrile (40:60, using sodium hydroxide solution to adjust pH to 5.0) as the mobile phase and a detection wavelength of 334 nm. PK profile comparison of Polymorph Form II of Icotinib maleate and Crystalline Form I of Icotinib hydrochloride was summarized in Table 1 and FIG. 3.

| AUC(0-inf) [ng·h/mL] | Cmax [ng/mL] | Tmax [h] | half-life [h] | AUC(0-t) [ng·h/mL] | SMILES |
| --- | --- | --- | --- | --- | --- |
| 65400 | 7530 | 5.33 | 3.06 | 64800 | C#Cc1cccc(Nc2ncnc3cc4c(cc23)OCCOCCOCCO4)c1.O=C(O)/C=C\C(=O)O [Form II, Icotinib maleate] |
| 19100 | 3360 | 2.33 | 2.94 | 19000 | C#Cc1cccc(Nc2ncnc3cc4c(cc23)OCCOCCOCCO4)c1 [Icotinib hydrochloride] |
